Source: ChEMBL document CHEMBL5528033, “Peptide-Drug Conjugates: An Emerging Direction for the Next Generation of Peptide Therapeutics” (J Med Chem, 2024)
Starred links: 1 amine or outer side, 2 acyl side, 3 side chain; linkers in the order of their positions; H or OH if unused. Positions of bridges follow the written chain, without caps; N, C: chain ends. Non-standard residues stand in square brackets, D forms with d. Residues, ends and D or L forms follow the SMILES beside them. *: point of attachment. DAMPA = CN(Cc1cnc2nc(N)nc(N)c2n1)c1ccc(C(=O)*)cc1; γGlu = O=C(O)[C@H](CCC(=O)[*:2])N[*:1]; Pen = CC(C)(S)[C@H](N)C(=O)O

Assays:
[1] = molecular target: Kappa-type opioid receptor (Mus musculus, UniProt P33534); experiment: Displacement of [3H]DPN from mouse KOR stably expressed in HEK293T cell membrane assessed as inhibition constant by radioligand binding assay; format: cell membranes
Chain of Kappa-type opioid receptor (P33534 whole entry): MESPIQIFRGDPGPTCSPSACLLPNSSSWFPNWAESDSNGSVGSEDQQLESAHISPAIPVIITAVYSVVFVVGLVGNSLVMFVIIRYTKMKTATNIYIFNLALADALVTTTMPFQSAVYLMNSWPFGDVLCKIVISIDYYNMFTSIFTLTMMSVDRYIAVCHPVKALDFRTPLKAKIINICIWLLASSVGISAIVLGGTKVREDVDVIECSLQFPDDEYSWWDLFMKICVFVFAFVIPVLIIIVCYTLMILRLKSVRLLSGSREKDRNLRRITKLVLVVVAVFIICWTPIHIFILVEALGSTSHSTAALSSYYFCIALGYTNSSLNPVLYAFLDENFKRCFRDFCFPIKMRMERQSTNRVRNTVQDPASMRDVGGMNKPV

[2] = Stability of the compound assessed as half life at pH 6; format: physicochemical; conditions: buffer
[3] = Stability in rat plasma assessed as half life measured upto 120 mins; format: ADME, cell-free
[4] = Stability in rat heart assessed as half life measured upto 120 mins; format: ADME, tissue-based
[5] = Binding affinity to Dengue virus NS2B-NS3 protease assessed as inhibition constant

Compound: C[C@H](O)[C@@H]1NC(=O)[C@H](Cc2ccc(O)cc2)NC(=O)[C@@H](C)NC(=O)[C@@H](Cc2ccc(O)cc2)NC(=O)CSC[C@@H](C(=O)N[C@@H](C(=O)N[C@H](Cc2ccccc2)C(=O)N[C@@H]2CCC3C4Cc5ccc(O)c6c5C3(CCN4C)[C@H]2O6)[C@@H](C)O)NC(=O)[C@H]([C@H](C)O)NC1=O (stereo partly specified)
- Ki [1]: 72 nM

Compound: C=CCN1CCC23c4c5ccc(O)c4O[C@H]2[C@H](NC(=O)[C@@H](Cc2ccccc2)NC(=O)[C@H](NC(=O)[C@@H]2CSCC(=O)N[C@H](Cc4ccc(O)cc4)C(=O)N[C@H](C)C(=O)N[C@@H](Cc4ccc(O)cc4)C(=O)N[C@@H]([C@H](C)O)C(=O)N[C@@H]([C@H](C)O)C(=O)N2)[C@@H](C)O)CCC3C1C5 (stereo partly specified)
- Ki [1]: 3.9 nM

Compound: CC(C)C[C@@H]1NC(=O)[C@H](C(C)C)NC(=O)[C@H](CO)NC(=O)CNC(=O)CNC(=O)[C@H](CCCNC(=N)N)NC(=O)[C@@H]2CCCN2C(=O)[C@@H](NC(=O)CC[C@H](NC(=O)c2ccc(N(C)Cc3cnc4nc(N)nc(N)c4n3)cc2)C(=O)O)C(C)(C)SSC[C@@H](C(=O)O)NC(=O)CNC(=O)[C@H]([C@@H](C)O)NC(=O)[C@H](C(C)C)NC1=O ({DAMPA-γGlu}-[Pen]PRGGSVLVTGC-OH; disulfide 1-12)
- half-life [2]: 770 min
- half-life [3]: 43.8 min
- half-life [4]: 38.1 min

Compound: CCCC[C@@H](NC(=O)[C@H](CCCCN)NC(=O)[C@H](CCCNC(=N)N)NC(=O)c1ccc(/C=C(\C#N)C(=O)NC2CC2)cc1)C(N)=O
- Ki [5]: 4900 nM
